# Test results from the supplement of paper PMC13380429.
# Assays:
# Conditions in all cases: 72 h
# [1] = system: Caco-2; assay: cell viability relative to DMSO; higher = less toxic
# [2] = system: Calu-3; assay: as above
# [3] = system: HepG2; assay: as above
# [4] = system: U2OS; assay: as above
# [5] = system: Vero E6; assay: as above
# [6] = system: Caco-2; assay: relative viability EC50 (midpoint between 100% and the lowest measured viability); higher = less toxic
# [7] = system: Calu-3; assay: as above
# [8] = system: HepG2; assay: as above
# [9] = system: U2OS; assay: as above
# [10] = system: Vero E6; assay: as above
# [11] = system: Caco-2; assay: drug sensitivity score (DSS) for viability; higher = more toxic; extreme values may be limits of the assay
# [12] = system: Calu-3; assay: as above
# [13] = system: HepG2; assay: as above
# [14] = system: U2OS; assay: as above
# [15] = system: Vero E6; assay: as above
Structure (SMILES),cell viability ([1]; 1 nM),cell viability ([1]; 10 nM),cell viability ([1]; 100 nM),cell viability ([1]; 1000 nM),cell viability ([1]; 10000 nM),cell viability ([2]; 1 nM),cell viability ([2]; 10 nM),cell viability ([2]; 100 nM),cell viability ([2]; 1000 nM),cell viability ([2]; 10000 nM),cell viability ([3]; 1 nM),cell viability ([3]; 10 nM),cell viability ([3]; 100 nM),cell viability ([3]; 1000 nM),cell viability ([3]; 10000 nM),cell viability ([4]; 1 nM),cell viability ([4]; 10 nM),cell viability ([4]; 100 nM),cell viability ([4]; 1000 nM),cell viability ([4]; 10000 nM),cell viability ([5]; 1 nM),cell viability ([5]; 10 nM),cell viability ([5]; 100 nM),cell viability ([5]; 1000 nM),cell viability ([5]; 10000 nM),relative viability EC50 [6],relative viability EC50 [7],relative viability EC50 [8],relative viability EC50 [9],relative viability EC50 [10],drug sensitivity score [11],drug sensitivity score [12],drug sensitivity score [13],drug sensitivity score [14],drug sensitivity score [15]
O=C1NCC2(CCN(CCc3ccccc3)CC2)O1 [fenspiride],99%,103%,91.2%,101%,104%,96.6%,92.5%,85%,92.3%,98.9%,96.7%,107%,100%,112%,103%,105%,97.7%,101%,99.2%,108%,94.9%,98.3%,97.9%,103%,103%,> 10 µM,> 10 µM,> 10 µM,> 10 µM,> 10 µM,0,0,0,0,0
CC1(C)OC(=O)C(OCC2CC2)=C1c1ccc(S(C)(=O)=O)cc1 [firocoxib],98.3%,91.8%,84.1%,83.4%,86.5%,95.9%,93.2%,95.6%,110%,104%,105%,97.7%,104%,103%,101%,96.7%,107%,95.3%,97.2%,102%,100%,101%,99.2%,96.4%,98.2%,> 10 µM,> 10 µM,> 10 µM,> 10 µM,> 10 µM,3.5,0,0,0,0
O=C1NC(c2ccccc2)(c2ccccc2)C(=O)N1COP(=O)(O)O [fosphenytoin],97.6%,102%,86.3%,104%,105%,89.4%,97.3%,90.4%,87.7%,102%,97.1%,92.7%,100%,109%,91.4%,98%,98.5%,101%,95.1%,102%,110%,84.9%,102%,106%,94.6%,> 10 µM,> 10 µM,> 10 µM,> 10 µM,> 10 µM,0,0,0,0,0
O=C1OC(CN2CCOCC2)CN1/N=C/c1ccc([N+](=O)[O-])o1 (stereo not given) [furaltadone],96.5%,87%,79.7%,99.8%,82.3%,95.7%,93.6%,94.4%,103%,104%,96.4%,93.3%,92.8%,81.7%,82.5%,99.8%,99.3%,95.4%,106%,95.1%,108%,94%,103%,109%,102%,> 10 µM,> 10 µM,> 10 µM,> 10 µM,> 10 µM,0,0,2.1,0,0
CC(=O)[C@H]1CC[C@H]2[C@@H]3CC[C@H]4C[C@](C)(O)CC[C@]4(C)[C@H]3CC[C@]12C [ganaxolone],95%,98.7%,98.2%,98.7%,101%,96.7%,94%,98.5%,98.4%,102%,93.4%,108%,94.2%,102%,101%,98.8%,99.4%,101%,100%,100%,89.8%,103%,91.2%,95.7%,106%,> 10 µM,> 10 µM,> 10 µM,> 10 µM,> 10 µM,0,0,0,0,0
NCC(=O)N[C@@H](CCC(N)=O)C(=O)O [gly-gln],95.5%,92.6%,92.9%,102%,97.7%,95.9%,91.9%,92.7%,99.2%,109%,86.6%,100%,91.7%,106%,104%,99.2%,95.4%,96.7%,98.3%,97.1%,91.8%,101%,91.7%,94.2%,107%,> 10 µM,> 10 µM,> 10 µM,> 10 µM,> 10 µM,0,0,0,0,0
COc1ccc([C@@H]2CC(=O)c3c(O)cc(O[C@@H]4O[C@H](CO[C@@H]5O[C@@H](C)[C@H](O)[C@@H](O)[C@H]5O)[C@@H](O)[C@H](O)[C@H]4O)cc3O2)cc1O [hesperidin],98.3%,103%,97.5%,88.1%,98.9%,89.1%,86.3%,91.6%,97.9%,101%,99%,109%,99.1%,103%,83.7%,97.5%,97.9%,102%,99.7%,104%,103%,102%,99%,98.5%,99.8%,> 10 µM,> 10 µM,> 10 µM,> 10 µM,> 10 µM,0,0,0.2,0,0
CCCCCCc1ccc(O)cc1O [hexylresorcinol],95.9%,98.5%,98.4%,100%,94.9%,91%,109%,104%,97.8%,99.7%,105%,98.7%,107%,93.7%,94%,98.3%,101%,97.5%,104%,99.9%,102%,101%,106%,103%,96.7%,> 10 µM,> 10 µM,> 10 µM,> 10 µM,> 10 µM,0,0,0,0,0
CC(=O)OCC(=O)[C@@]1(O)CC[C@H]2[C@@H]3CCC4=CC(=O)CC[C@]4(C)[C@H]3[C@@H](O)C[C@@]21C [hydrocortisone-acetate],92.6%,94.4%,106%,97.6%,107%,93.8%,102%,97.9%,96.8%,89.2%,101%,105%,105%,99.5%,103%,94.6%,97%,93%,97.7%,98.6%,95.7%,99.4%,96.2%,95.4%,101%,> 10 µM,> 10 µM,> 10 µM,> 10 µM,> 10 µM,0,0,0,0,0
O=c1[nH]cnc2nc[nH]c12 [hypoxanthine],101%,87%,102%,103%,112%,98.1%,90.3%,102%,95.4%,102%,100%,102%,97.7%,95.5%,94%,98%,97.8%,102%,102%,113%,105%,105%,102%,104%,96.5%,> 10 µM,> 10 µM,> 10 µM,> 10 µM,> 10 µM,0,0,0,0,0
OC[C@H]1O[C@@H](c2ccc(F)c(Cc3cc4ccccc4s3)c2)[C@H](O)[C@@H](O)[C@@H]1O [ipragliflozin-L-proline],108%,99.8%,100%,101%,100%,92.4%,108%,98%,110%,100%,108%,101%,105%,96.3%,111%,99.2%,98.7%,99.4%,104%,99%,110%,104%,105%,99.4%,103%,> 10 µM,> 10 µM,> 10 µM,> 10 µM,> 10 µM,0,0,0,0,0
CC(=O)OCC(=O)[C@@]1(O)CC[C@H]2[C@@H]3CCC4=CC(=O)C=C[C@]4(C)[C@@]3(F)[C@@H](O)C[C@@]21C [isoflupredone-acetate],104%,96.9%,97%,103%,102%,92.6%,97.2%,82.4%,93.2%,107%,102%,92.3%,102%,99.2%,104%,96.4%,98.2%,94.5%,99.4%,105%,100%,101%,96%,94.5%,107%,> 10 µM,> 10 µM,> 10 µM,> 10 µM,> 10 µM,0,0,0,0,0
CC[C@H](C)[C@H]1O[C@]2(CC[C@@H]1C)C[C@@H]1C[C@@H](C/C=C(\C)[C@@H](O[C@H]3C[C@H](OC)[C@@H](O[C@H]4C[C@H](OC)[C@@H](O)[C@H](C)O4)[C@H](C)O3)[C@@H](C)/C=C/C=C3\CO[C@@H]4[C@H](O)C(C)=C[C@@H](C(=O)O1)[C@]34O)O2 [ivermectin],94.7%,90.3%,94.2%,95.8%,108%,101%,107%,88.1%,97.1%,93.6%,96.2%,98.5%,108%,107%,85%,104%,95.1%,99.4%,96.1%,93.9%,107%,103%,106%,103%,87.8%,> 10 µM,> 10 µM,> 10 µM,> 10 µM,> 10 µM,0,0,0.1,0,0
